Assay [1] deals with pear scab (Japanese pear scab). Description: Effect test against pear scab (Japanese pear scab), effect on leaves, sprayed adult pear trees. The assay is classed as in vivo, pear (cultivar: Housui). To be noted: sprayed four times. How it is done: Test Example 1: Effect Test Against Pear Scab (Japanese Pear Scab) (Effect on Leaves) A given amount of a chemical was sprayed on adult trees of pear (cultivar: Housui) with a pressurized sprayer in an amount sufficient to drip from the leaves. The spraying was performed four times in total at intervals of 8 to 10 days, about 50 leaves per area were investigated about the presence or absence of the onset of the disease days after the final spraying, and the ratio of the leaves with the onset of the disease and the disease control value were calculated (in triplicate). In addition, the theoretical value (of the disease control value) by mixing was also calculated according to the Colby's formula. Disease control value=(1−a/b)×100 wherein a: Mean ratio of leaves with the onset of the disease in the treated area, b: Mean ratio of leaves with the onset of the disease in the untreated area; Colby's formula=(X+Y)−XY/100 wherein X: Disease control value when using isofetamid alone, Y: Disease control value when using mandestrobin alone. When the actually measured value is higher than the theoretical value, the fungicide composition of the present invention has a synergistic effect on pear scab (Japanese pear scab).

In assay [2] the test system is pear scab (Japanese pear scab). Nature of the assay: Effect test against pear scab (Japanese pear scab), effect on fruits, sprayed adult pear trees. The assay is classed as in vivo, pear (cultivar: Housui). To be noted: 8 days after the final spraying. How it is done:
Test Example 2: Effect Test Against Pear Scab (Japanese Pear Scab) (Effect on Fruits) A given amount of a chemical was sprayed on adult trees of pear (cultivar: Housui) with a pressurized sprayer in an amount sufficient to drip from the leaves and fruits. The spraying was performed four times in total at intervals of 6 to 11 days, about 50 fruits per area were investigated about the presence or absence of the onset of the disease 8 days after the final spraying, and the ratio of the fruits with the onset of the disease and the disease control value were calculated (in triplicate). In addition, the theoretical value (of the disease control value) by mixing was also calculated according to the Colby's formula. Disease control value=(1−a/b)×100 wherein a: Mean ratio of fruits with the onset of the disease in the treated area, b: Mean ratio of fruits with the onset of the disease in the untreated area.

The test system of assay [3] is Pear scab (Japanese pear scab) fungus, Venturia nashicola. Description: Inhibitory effect test for hyphal elongation on PDA, 20° C., 25 days. The assay is classed as cell-based. To be noted: read-out: Inhibition rate (%). How it is done:
Test Example 3: Inhibitory Effect Test for Hyphal Elongation (Pear Scab (Japanese Pear Scab) Fungus, Venturia nashicola) A fungal flora (diameter: 4 mm) obtained by pre-cultivation was transplanted on PDA (potato dextrose agar medium) containing a given concentration of a chemical and then cultured at room temperature of 20° C. for 25 days, followed by measuring the diameter (mm) of the grown flora to determine the hyphal elongation inhibition rate. In addition, theoretical values (of the hyphal elongation inhibition rate) were calculated according to the Colby's calculation formula based on the above determined hyphal elongation inhibition rate, and presented in parenthesis in the table. Inhibition rate=(1−a/b)×100 wherein a: “Mean diameter (mm) of flora in the treated area”—4, b: “Mean diameter (mm) of flora in the untreated area”—4 Colby's formula=(X+Y)−XY/100 X: Inhibition rate when using isofetamid alone Y: Inhibition rate when using mandestrobin alone. When the experimental value is higher than the theoretical value, the fungicide composition of the present invention has a synergistic effect on pear scab (Japanese pear scab) fungus.

Assay [4] has as its system Apple anthracnose (apple bitter rot) fungus, Colletotrichum gloeosporioides. Description: Inhibitory effect test for hyphal elongation on PDA, 20° C., 2 days. The assay is classed as cell-based. Particulars: read-out: Inhibition rate (%). On the procedure:
(§1) Test Example 4: Inhibitory Effect Test for Hyphal Elongation (Apple Anthracnose (Apple Bitter Rot) Fungus, Colletotrichum gloeosporioides) A fungal flora (diameter: 4 mm) obtained by pre-cultivation was transplanted on PDA containing a given concentration of a chemical and then cultured at room temperature of 20° C. for 2 days, followed by measuring the diameter of the grown flora in the same manner as described in Test Example 3 to determine the hyphal elongation inhibition rate. In addition, theoretical values (of the hyphal elongation inhibition rate) were calculated according to the Colby's calculation formula based on the above determined hyphal elongation inhibition rate, and presented in parenthesis in the table.

For assay [5], the system named is Apple anthracnose (apple bitter rot) fungus, Colletotrichum acutatum. Described as above. To be noted: read-out: Inhibition rate (%). The assay is classed as cell-based. On the procedure: as §1, with “Test Example 5: Inhibitory Effect” for “Test Example 4: Inhibitory Effect”, “Fungus, Colletotrichum acutatum) A fungal” for “Fungus, Colletotrichum gloeosporioides) A fungal”, “the hyphal elongation, inhibition rate.” for “the hyphal elongation inhibition rate.”

The mark [6] stands for this setting: Mandestrobin 0.01 ppm alone (Isofetamid 0 ppm).
Setting [7] is: Mandestrobin 0.1 ppm alone (Isofetamid 0 ppm).
The mark [8] stands for this setting: Mandestrobin 1 ppm alone (Isofetamid 0 ppm).
The mark [9] stands for this setting: Mandestrobin 10 ppm alone (Isofetamid 0 ppm).
Setting [10] is: Isofetamid 0.01 ppm alone (Mandestrobin 0 ppm).
The mark [11] stands for this setting: Isofetamid 0.1 ppm alone (Mandestrobin 0 ppm).
[12] abbreviates: Isofetamid 1 ppm alone (Mandestrobin 0 ppm).
Where [13] appears, read: Isofetamid 10 ppm alone (Mandestrobin 0 ppm).

Read-outs that look alike come from different tables or passages of the source.

Consider `CNC(=O)C(OC)c1ccccc1COc1cc(C)ccc1C` (racemic) [Mandestrobin, (RS)-2-methoxy-N-methyl-2-[α-(2,5-xylyloxy)-o-tolyl]acetamide], for which the Disease control value is listed as 65.9 in assay [1] (Mandestrobin 70 ppm); 74.9 in assay [1] (Mandestrobin 140 ppm); 77.5 in assay [2] (Mandestrobin 70 ppm); 90.1 in assay [2] (Mandestrobin 100 ppm); 93.4 in assay [2] (Mandestrobin 140 ppm). Further, the “Ratio of leaves with onset of disease (%)” value in assay [1] (Mandestrobin 70 ppm) is given as 31.7%; in assay [1] (Mandestrobin 140 ppm) it was 23.3%. The “Ratio of fruits with onset of disease (%)” value in assay [2] (Mandestrobin 70 ppm) is listed as 10.3%; in assay [2] (Mandestrobin 100 ppm) it was 4.5%; in assay [2] (Mandestrobin 140 ppm), 3.0%. Also, the inhibition at 0.01 ppm in assay [3] (setting [6]) is 0%; in assay [4] (setting [6]), 1.9%; in assay [5] (setting [6]), 0%. The inhibition at 0.1 ppm in assay [3] (setting [7]) is 12.8%; in assay [4] (setting [7]), 3.8%; in assay [5] (setting [7]), 0%. Further, the inhibition at 1 ppm in assay [3] (setting [8]) stood at 27.7%; in assay [4] (setting [8]) it was 14.1%; in assay [5] (setting [8]), 42.6%. Also, the results for the inhibition at 10 ppm in assay [3] (setting [9]), in assay [4] (setting [9]) and in assay [5] (setting [9]) were 44.7%, 33.3% and 55.4%, respectively.
Turning to `Cc1cc(OC(C)C)ccc1C(=O)C(C)(C)NC(=O)c1sccc1C` [Isofetamid, N-[1,1-dimethyl-2-(4-isopropoxy-o-tolyl)-2-oxoethyl]-3-methylthiophene-2-carboxamide], the Disease control value in assay [1] (Isofetamid 90 ppm) stood at 66.3; in assay [1] (Isofetamid 190 ppm) it was 56.4; in assay [2] (Isofetamid 93 ppm) it was 83.4; in assay [2] (Isofetamid 134 ppm), 77.5; in assay [2] (Isofetamid 187 ppm), 62.3. Moreover, the entries for the “Ratio of leaves with onset of disease (%)” value in assay [1] (Isofetamid 90 ppm) and in assay [1] (Isofetamid 190 ppm) were 31.3% and 40.5%, respectively. Also, the “Ratio of fruits with onset of disease (%)” value in assay [2] (Isofetamid 93 ppm) came to 7.6%; in assay [2] (Isofetamid 134 ppm), 10.3%; in assay [2] (Isofetamid 187 ppm), 17.2%. The results for the inhibition at 0.01 ppm in assay [3] (setting [10]), in assay [4] (setting [10]) and in assay [5] (setting [10]) were 0%, 0% and 6.9%, respectively. The inhibition at 0.1 ppm in assay [3] (setting [11]) worked out at 8.5%; in assay [4] (setting [11]), 0%; in assay [5] (setting [11]), 3%. Also, the inhibition at 1 ppm in assay [3] (setting [12]) was 49.6%; in assay [4] (setting [12]) it was 0%; in assay [5] (setting [12]), 0%. In addition, the inhibition at 10 ppm in assay [3] (setting [13]) is 100%; in assay [4] (setting [13]) it was 2.6%; in assay [5] (setting [13]), 24.8%.

As a reminder, the inhibition is the share of the control response that was lost under treatment.

For the origin of these results see patent US11653650B2, “Fungicide composition and method for controlling disease of crop” (ISHIHARA SANGYO KAISHA, LTD., priority 2017, dated 2023).
